Data from patent US20190352276A1, “INHIBITORS OF BRUTON'S TYROSINE KINASE” (Joint Stock Company "Biocad", priority 2016, published 2019).
Read-outs that look alike come from different tables or passages of the source.

Legend:
[1] = test system: Z-138 (mantle cell lymphoma); assay: Antiproliferative activity, Z-138 cells (Alamar Blue); type: cell-based; conditions: Homo sapiens
How it was run: (§1)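 Cells grown in RPMI-1640 with 10% FBS and gentamicin, seeded ~3*10^4 cells/well, then exposed to compounds (DMSO <1% final) for 72 h at 37 °C, 5% CO2. Viability by Alamar Blue after 14-16 h, fluorescence Ex 540/Em 590 nm; IC50 from four-parameter logistic fit.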

[2] = test system: Mino (mantle cell lymphoma); assay: Antiproliferative activity, Mino cells (Alamar Blue); type: cell-based; conditions: Homo sapiens
How it was run: as §1

[3] = Permeability through the monolayer of Caco-2 cells; type: in vitro ADME; conditions: human; for Papp A→B at 2 h, 10 μM / Papp B→A at 2 h, 10 μM: 2 h at 37° C.; for efflux ratio at 2 h, 10 μM: read-out: efflux (Papp B-A/Papp A-B)
How it was run: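 Caco-2 monolayers grown 21 days on 0.4 μm transwell filters, integrity checked with Lucifer Yellow. Compounds at 10 μM were added apically at pH 6.5 (A→B) or basolaterally at pH 7.4 with 1% BSA (B→A) and sampled after 2 h. Concentrations by HPLC; Papp calculated, efflux ratio as Papp B-A/Papp A-B.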

[4] = General cytotoxicity on HepG2 cells (CC50; therapeutic index CC50 HepG2/IC50 Mino); type: cell-based; conditions: human, HepG2 cells (hepatocellular carcinoma), 72 hours, Alamar Blue
How it was run: (§2)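 Cells seeded at 2*10^4 per well in DMEM, compounds added after 24 h at 200 μM to 4 μM final and incubated 72 h. Viability read with Alamar Blue to derive CC50; therapeutic index is CC50 (HepG2) divided by IC50 (Mino).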

[5] = test system: HepG2 cells (hepatocellular carcinoma); assay: as above; type: cell-based; conditions: therapeutic index
How it was run: as §2

EGFR = target: T1, EGFR (Homo sapiens, UniProt P00533); assay: In vitro kinase panel: EGFR; type: biochemical; conditions: Table 9 kinase panel
T1 construct: purchased SignalChem E10-11G
T1 sequence (P00533 672-1210 limits assumed): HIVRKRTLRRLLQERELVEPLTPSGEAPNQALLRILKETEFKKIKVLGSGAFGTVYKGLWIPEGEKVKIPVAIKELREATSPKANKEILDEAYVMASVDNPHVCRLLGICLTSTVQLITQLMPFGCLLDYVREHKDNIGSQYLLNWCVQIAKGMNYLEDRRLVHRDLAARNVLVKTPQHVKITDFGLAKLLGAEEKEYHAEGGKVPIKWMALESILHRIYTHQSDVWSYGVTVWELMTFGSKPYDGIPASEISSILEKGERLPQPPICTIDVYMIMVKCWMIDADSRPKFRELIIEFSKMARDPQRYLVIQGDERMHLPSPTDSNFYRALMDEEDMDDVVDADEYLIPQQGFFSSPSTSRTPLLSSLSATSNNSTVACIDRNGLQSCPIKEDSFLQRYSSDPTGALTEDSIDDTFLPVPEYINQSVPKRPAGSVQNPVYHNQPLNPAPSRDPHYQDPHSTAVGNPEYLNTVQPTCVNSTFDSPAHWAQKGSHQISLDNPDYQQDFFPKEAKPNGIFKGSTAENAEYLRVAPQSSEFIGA
Experimental: (§3) The measurements were carried out in a 25 μL reaction volume using a 96-well plate (Corning, #3642). The kinase enzyme and inhibitor were pre-incubated for 10 minutes in the reaction buffer containing 25 mM of MOPS (pH 7.2), 12.5 mM of 0-glycerophosphate, 27 mM of MgCl2, 2 mM of MnCl2, 5 mM of EGTA, 2 mM of EDTA, 0.3 mM of DTT, and 1.2 mg/mL of bovine serum albumin. Staurosporine (Abcam Biochemicals, ab146588) was used as a reference inhibitor and 0.1% DMSO in the reaction buffer—as a negative control. The solution of 0.5 mg/mL peptide substrate and 50 &M ATP in the same buffer were added; the solution was incubated for 180 minutes at 37° C. To detect the amount of ATP taken up during the kinase reaction, the equivalent amount of ADP (from the ADP Glo Detection Kit (Promega, #V9101)) was used according to the protocol. The reaction mixture was equilibrated to room temperature. 25 µL of ADP-Glo Reagent were added into each well; the plate was incubated for 40 minutes. 50 μL of Kinase Detection Reagent were added; the plate was incubated for 30 minutes. The luminescence was measured with multimode plate reader (Tecan Infinite M200Pro, Switzerland). IC50 values were calculated using Magellan 7.2 software (Tecan, Switzerland) approximating experimental points by four-parameter logistic model with the optimization by Levenberg-Marquardt.
For active compounds selected by screening using the target enzyme BTK, the values of IC50 were determined on a kinase panel: EGFR (SignalChem, #E10-11G), ITK (SignalChem, #I13-10G) and TEC (SignalChem, #T03-10G).

[6] = target: T2, recombinant Btk kinase enzyme (Homo sapiens, UniProt Q06187); assay: In vitro inhibition of Btk kinase activity (ADP-Glo); type: biochemical; conditions: read-out: IC50 kinase BTK
T2 construct: purchased SignalChem B10-10H
T2 sequence (Q06187 whole entry): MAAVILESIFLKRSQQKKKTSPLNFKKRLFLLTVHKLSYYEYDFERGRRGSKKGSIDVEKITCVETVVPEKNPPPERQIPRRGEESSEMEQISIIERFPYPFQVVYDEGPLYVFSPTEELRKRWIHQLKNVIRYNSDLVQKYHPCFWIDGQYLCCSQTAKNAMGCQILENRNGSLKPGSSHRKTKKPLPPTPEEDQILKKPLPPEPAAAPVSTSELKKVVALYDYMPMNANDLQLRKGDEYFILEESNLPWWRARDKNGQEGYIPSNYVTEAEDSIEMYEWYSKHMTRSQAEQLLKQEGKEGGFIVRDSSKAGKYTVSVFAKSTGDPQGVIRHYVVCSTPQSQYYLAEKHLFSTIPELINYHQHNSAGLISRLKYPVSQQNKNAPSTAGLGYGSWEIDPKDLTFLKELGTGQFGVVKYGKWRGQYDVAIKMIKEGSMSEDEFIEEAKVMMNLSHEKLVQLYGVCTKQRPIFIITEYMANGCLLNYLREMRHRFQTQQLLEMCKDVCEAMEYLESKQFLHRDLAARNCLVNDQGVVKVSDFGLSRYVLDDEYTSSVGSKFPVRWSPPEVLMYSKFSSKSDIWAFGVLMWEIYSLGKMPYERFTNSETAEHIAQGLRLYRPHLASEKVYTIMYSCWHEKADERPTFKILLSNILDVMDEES
Experimental: To assess Btk kinase activity described herein, SignalChem kinase system was used. Btk kinase activity was determined in the reaction between recombinant Btk kinase enzyme (SignalChem #B10-10H) and Poly (4:1 Glu, Tyr) peptide substrate in the presence of the inhibitor.
as §3, with “Staurosporine” for “The measurements were carried out in a 25 μL reaction volume using a 96-well plate (Corning, #3642). The kinase enzyme and inhibitor were pre-incubated for 10 minutes in the reaction buffer containing 25 mM of MOPS (pH 7.2), 12.5 mM of 0-glycerophosphate, 27 mM of MgCl2, 2 mM of MnCl2, 5 mM of EGTA, 2 mM of EDTA, 0.3 mM of DTT, and 1.2 mg/mL of bovine serum albumin. Staurosporine”

[7] = test system: DOHH2 (follicular lymphoma); assay: Antiproliferative activity, DOHH2 cells (Alamar Blue); type: cell-based; conditions: Homo sapiens, DOHH-2, Table 10, 72 h, average of several tests
How it was run: as §1

[8] = Stability in human blood plasma; conditions: 10 μM in pooled human blood plasma, incubated 4 hours at 37° C.
Experimental: To assess the blood plasma stability of the drug candidates, we used pooled human blood plasma taken from ten healthy donors. The initial solution (10 Mm in DMSO) was diluted with pooled blood plasma to 10 μM (test solution). The test solution had been incubated for 4 hours in a dry block heater at 37° C. We determined peak areas of the compounds corresponding to the start of the test (before incubating) and the end of the test (after incubating in a dry block heater at 37° C.) by HPLC using Agilent1200 chromatograph (Agilent, USA) with preliminary protein precipitation with acetonitrile. We used gradient elution (1 mL/min flow rate). We determined amount of substance in the sample in % after incubation.
(§4) We evaluated the stability of the compounds.

[9] = Chemical stability in artificial gastric fluid (SGF without enzymes); conditions: 10 μM in SGF without enzymes, pH=1.4, 37° C.
Experimental: The initial candidate solution (10 mM in DMSO) was diluted with the working solution of SGF to the concentration of 10 μm (test solution). The test solution was incubated in a dry block heater at 37° C. We determined peak areas of the compounds corresponding to the start of the test (before incubating) and the end of the test (after incubating in a dry block heater at 37° C.) by HPLC using Agilent1200 chromatograph (Agilent, USA). We used gradient elution (1 mL/min flow rate). We determined amount of substance in the sample in % after incubation.
as §4

[10] = Table 10, 72 h, average of several tests
[11] = Table 10, average of several tests

Row | Structure (SMILES) | IC50 ([1]; Table 11, 72 h) [µM] | IC50 ([2]; Table 11, 72 h) [µM] | Papp A→B at 2 h, 10 μM [3] [×10⁻⁶ cm/s] | Papp B→A at 2 h, 10 μM [3] [×10⁻⁶ cm/s] | efflux ratio at 2 h, 10 μM [3] | CC50 at 72 h ([4]; Table 11) [µM] | CC50 (HepG2)/IC50 (Mino) ([5]; Table 11) | IC50 (EGFR) [nM] | IC50 ([6]; Table 9 kinase panel) [nM] | IC50 [1, 10] [µM] | IC50 [7] [µM] | Amount of substance in the sample, % (stability in human blood plasma) [8] [%] | IC50 [2, 10] [µM] | CC50 at 72 h [4, 11] [µM] | CC50 (HepG2)/IC50 (Mino) ([5]; Table 10) | IC50 ([6]; Table 8, ADP-Glo) [nM] | Amount of substance in the sample in % (chemical stability) [9] [%]
1 | C=CC(=O)N1CCC[C@@H](n2nc(-c3ccc(Oc4ccncc4)cc3)c3c(N)ncc(C#N)c32)C1 [BCD-BTK-134, (R)-1-(1-acryloylpiperidin-3-yl)-4-amino-3-(4-(pyridin-4-yloxy)phenyl)-1H-pyrazolo[4,3-c]pyridin-7-carbonitrile] | 21.2 | 11.6 | 25.8 | 12 | 0.4 | 64 | 5.80 | 127 | 1.16 | – | – | – | – | – | – | – | –
2 | C=CC(=O)N1CCC[C@@H](n2nc(-c3ccc(Oc4ccncc4C(N)=O)cc3)c3cncc(Cl)c32)C1 [BCD-BTK-203, (R)-4-(4-(1-(1-acryloylpiperidin-3-yl)-7-chloro-1H-pyrazolo[4,3-c]pyridin-3-yl)phenoxy)nicotinamide] | – | – | 9.31 | 8.4 | 0.9 | – | – | – | – | 16 | 14 | 84.7 | 13.6 | 61.9 | 4.55 | 1100 | –
3 | C=CC(=O)N1CCC[C@@H](n2nc(-c3ccc(Oc4cccnc4C#N)cc3)c3cncc(Cl)c32)C1 [BCD-BTK-218, 3-(4-{7-chloro-1-[1-(prop-2-enoyl)piperidin-3-yl]-1H-pyrazolo[4,3-c]pyridin-3-yl}phenoxy)pyridine-2-carbonitrile] | – | – | 20.2 | 17.4 | 0.86 | – | – | – | – | 8.58 | 3.55 | 92.0 | 1.1 | 26.2 | 23.92 | 55.5 | –
4 | C=CC(=O)N1CCC[C@@H](n2nc(-c3cnc(C(=O)Nc4ccccn4)nc3)c3cncc(Cl)c32)C1 [BCD-BTK-229, (R)-5-(1-(1-acryloylpiperidin-3-yl)-7-chloro-1H-pyrazolo[4,3-c]pyridin-3-yl)-N-(pyridin-2-yl)pyrimidine-2-carboxamide] | – | – | 10.7 | 12.2 | 1.14 | – | – | – | – | 77.1 | 41.2 | 83.5 | 36.3 | > 100 | >2.75 | 43.9 | 99.8
5 | C=CC(=O)N1CCC[C@@H](n2nc(-c3ccc(C(=O)Nc4ncccc4F)cc3)c3cncc(C#N)c32)C1 [BCD-BTK-235, 4-{7-cyano-1-[(3R)-1-(prop-2-enoyl)piperidin-3-yl]-1H-pyrazolo[4,3-c]pyridin-3-yl}-N-(3-fluoropyridin-2-yl)benzamide] | – | – | – | – | – | – | – | – | – | > 100 | > 100 | – | 18.6 | > 100 | >5.37 | 13.9 | 100
6 | C=CC(=O)N1CCC[C@@H](n2nc(-c3ccc(Oc4cccnc4C#N)cc3)c3c(N)ncc(Cl)c32)C1 [BCD-BTK-236, 3-(4-{4-amino-7-chloro-1-[(3R)-1-(prop-2-enoyl)piperidin-3-yl]-1H-pyrazolo[4,3-c]pyridin-3-yl}phenoxy) pyridine-2-carbonitrile] | – | – | 6.51 | 2.87 | 0.44 | – | – | – | – | 11.1 | 3.79 | 96.8 | 8.93 | 27.1 | 3.03 | 17.4 | 100
7 | C=CC(=O)N1CCC[C@@H](n2nc(-c3ccc(C(=O)Nc4ccc(F)cn4)cc3)c3c(N)ncc(Cl)c32)C1 [BCD-BTK-237, 4-{4-amino-7-chloro-1-[(3R)-1-(prop-2-enoyl)piperidin-3-yl]-1H-pyrazolo[4,3-c]pyridin-3-yl}-N-(5-fluoropyridin-2-yl)benzamide] | – | – | 6.9 | 3.5 | 0.5 | – | – | – | – | 6.99 | 3.25 | – | 6.25 | 28.4 | 4.54 | 12.7 | –
8 | C=CC(=O)N1CCC[C@@H](n2nc(-c3ccc(C(=O)Nc4ccccn4)cc3)c3c(N)ncc(Cl)c32)C1 [BCD-BTK-238, 4-{4-amino-7-chloro-1-[(3R)-1-(prop-2-enoyl)piperidin-3-yl]-1H-pyrazolo[4,3-c]pyridin-3-yl}-N-(pyridin-2-yl)benzamide] | – | – | 6.75 | 4.78 | 0.71 | – | – | – | – | 9.44 | 4.05 | – | 10.6 | 24.8 | 2.34 | 18.9 | 100
9 | C=CC(=O)N1CC[C@H](n2nc(-c3ccc(Oc4ccncc4)cc3)c3cncc(Cl)c32)C1 [BCD-BTK-266, (S)-1-(3-(7-chloro-3-(4-(pyridin-4-yloxy)phenyl)-1H-pyrazolo[4,3-c]pyridin-1-yl)pyrrolidin-1-yl)prop-2-en-1-one] | – | – | 9.5 | 2.2 | 0.23 | – | – | – | – | 12.6 | 4.99 | 87.2 | 3.61 | 12 | 3.33 | 13.2 | 100
10 | C=CC(=O)N1CC[C@@H](n2nc(-c3ccc(Oc4ccncc4)cc3)c3cncc(Cl)c32)C1 [BCD-BTK-272, (R)-1-(3-(7-chloro-3-(4-(pyridin-4-yloxy)phenyl)-1H-pyrazolo[4,3-c]pyridin-1-yl)pyrrolidin-1-yl)prop-2-en-1-one] | – | – | 6.3 | 1.1 | 0.18 | – | – | – | – | 14.9 | 5.23 | – | 6.83 | 17.6 | 2.57 | 54.8 | 100
